Data as given in patent US12692232B2, “Indole carboxamide compound, preparation therefor and use thereof” (NANJING RUISHUNING MEDICAL TECHNOLOGY CO., LTD., priority 2021, dated 2026).

Legend:
TRPC3 protein = molecular target: T1, TRPC3 protein (Homo sapiens, UniProt Q13507); assay: MST binding to TRPC3 protein; settings: for affinity strength to TRPC6 protein higher than to TRPC3 protein: MST Kd ratio
T1 sequence (Q13507 1-921): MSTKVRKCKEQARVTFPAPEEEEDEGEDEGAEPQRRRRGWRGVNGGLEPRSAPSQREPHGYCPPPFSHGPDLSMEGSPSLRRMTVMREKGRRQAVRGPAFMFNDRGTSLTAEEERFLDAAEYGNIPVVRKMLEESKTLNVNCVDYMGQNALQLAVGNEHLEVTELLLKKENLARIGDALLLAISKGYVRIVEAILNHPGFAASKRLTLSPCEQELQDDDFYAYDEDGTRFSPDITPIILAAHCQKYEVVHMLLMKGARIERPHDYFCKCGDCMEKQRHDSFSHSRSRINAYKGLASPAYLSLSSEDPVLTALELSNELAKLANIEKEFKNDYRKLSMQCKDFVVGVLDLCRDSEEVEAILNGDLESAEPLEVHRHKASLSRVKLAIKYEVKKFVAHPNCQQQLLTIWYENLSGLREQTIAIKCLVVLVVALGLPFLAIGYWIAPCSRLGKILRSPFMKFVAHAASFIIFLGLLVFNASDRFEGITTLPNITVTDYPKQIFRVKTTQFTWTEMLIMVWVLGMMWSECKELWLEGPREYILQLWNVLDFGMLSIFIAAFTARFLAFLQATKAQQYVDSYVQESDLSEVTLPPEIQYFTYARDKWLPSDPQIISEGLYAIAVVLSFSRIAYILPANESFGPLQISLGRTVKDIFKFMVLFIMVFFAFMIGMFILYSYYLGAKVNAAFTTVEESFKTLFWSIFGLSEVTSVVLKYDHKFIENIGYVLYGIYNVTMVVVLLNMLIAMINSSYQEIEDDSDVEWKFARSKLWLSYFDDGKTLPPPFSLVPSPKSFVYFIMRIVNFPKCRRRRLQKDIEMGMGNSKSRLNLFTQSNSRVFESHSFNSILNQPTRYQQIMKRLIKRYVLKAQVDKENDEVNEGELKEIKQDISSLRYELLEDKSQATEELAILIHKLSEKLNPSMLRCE
Procedure: (§1) Preparation and labelling of protein solution: TRPC6 protein dry powder (Alomone Labs, Israel) was prepared into a protein mother solution at a concentration of 10 μM using PBS-Buffer, and 35 μL of the protein stock solution was taken to the Buffer exchange A column, and centrifuged to obtain the Tris-removed protein. 34 μL Labelling Buffer was added to the Tris-removed protein according to the instructions of the Protein Fluorescent Labelling Kit (model L001). After mixing well, 3 μL of NT-647-NHS fluorescent dye was added and thus obtained mixture was incubated for 20 minutes. The protein-dye mixture was transferred to the purification B column, 300 μL of PBS-Buffer was added, and the target protein, i.e. fluorescent labelled protein TRPC6, was collected by centrifugation (with a final concentration of about 2 μM). 180 μL of target protein was mixed with 1620 μL of PBS-Buffer, and then 9 μl of Tween-20 were added thereto. Thus the resulting mixture was mixed and then centrifuged to obtain the target protein solution.
(§2) Preparation of compound solutions: the compounds were prepared separately with DMSO to storage solutions with a concentration of […]. 10 μL of each storage solution was placed in a […] EP tube, 90 μL of PBS was added thereto and the resulting mixture was thoroughly mixed to prepare 100 μL of working solution at a concentration of 1 μM for later use. Ligand gradient dilutions were made for a total of 16 concentrations, and 10 μL of 10% DMSO-Buffer was added to each of the 15 gradients except gradient 1, followed by the addition of 10 μL of ligand working solution to gradients 1 and 2, respectively. The liquid in tube 2 was mixed and then 10 μL therein was taken into tube 3, and dilution was carried out in this manner until tube 16. Tube 16 was mixed and 10 μL therein was taken and discarded, and the remainder was kept for later use.
(§3) Detection and analysis: 10 μL of protein solution was added to the 16 compound gradient dilutions respectively and mixed, and the resultant mixtures were transferred to capillary tubes sequentially to start detection on machine. After loading the data, the MST analysis model and Kd Model were selected to obtain the fitting curve and dissociation constant (Kd).
(§4) The binding ability of the compounds of the present invention (as exemplified by the compounds 1-1 and 2-1 obtained in Examples 1 and 3) for other TRPC proteins (e.g., TRPC1, TRPC3, TRPC4, TRPC5, and TRPC7) was determined using the microscale thermophoresis (MST) method. The method was as follows:
(§5) The affinity of the compounds of the present invention with TRPC1, TRPC3, TRPC4, TRPC5 and TRPC7 proteins, respectively, was determined by the same method as in Example 5.

TRPC7 protein = molecular target: T2, TRPC7 protein (Homo sapiens, UniProt Q9HCX4); assay: MST binding to TRPC7 protein; settings: for Kd: MST; for affinity strength to TRPC6 protein higher than to TRPC7 protein: MST Kd ratio
T2 sequence (Q9HCX4 1-862): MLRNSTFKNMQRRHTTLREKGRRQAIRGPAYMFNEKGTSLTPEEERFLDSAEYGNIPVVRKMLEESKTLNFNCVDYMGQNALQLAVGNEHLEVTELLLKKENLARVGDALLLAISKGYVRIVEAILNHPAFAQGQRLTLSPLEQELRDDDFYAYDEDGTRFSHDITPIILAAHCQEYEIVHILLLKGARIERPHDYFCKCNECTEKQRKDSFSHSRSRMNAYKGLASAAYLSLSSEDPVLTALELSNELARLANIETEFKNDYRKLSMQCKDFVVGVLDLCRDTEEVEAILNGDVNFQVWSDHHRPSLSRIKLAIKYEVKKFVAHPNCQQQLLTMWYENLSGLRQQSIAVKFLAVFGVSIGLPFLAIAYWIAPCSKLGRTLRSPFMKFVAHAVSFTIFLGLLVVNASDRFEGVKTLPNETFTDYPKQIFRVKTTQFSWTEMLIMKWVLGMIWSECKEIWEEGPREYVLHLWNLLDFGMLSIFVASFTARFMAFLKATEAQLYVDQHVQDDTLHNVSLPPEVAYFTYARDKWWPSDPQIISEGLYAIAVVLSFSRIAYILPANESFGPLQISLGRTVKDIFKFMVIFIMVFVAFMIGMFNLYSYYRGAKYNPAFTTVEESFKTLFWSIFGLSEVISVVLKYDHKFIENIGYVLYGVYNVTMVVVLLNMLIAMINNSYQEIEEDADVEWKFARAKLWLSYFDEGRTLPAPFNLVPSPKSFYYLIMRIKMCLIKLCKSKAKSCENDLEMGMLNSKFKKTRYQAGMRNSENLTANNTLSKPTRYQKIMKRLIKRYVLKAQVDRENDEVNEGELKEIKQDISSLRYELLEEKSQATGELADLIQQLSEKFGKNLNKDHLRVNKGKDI
Procedure: as §1, §2, §3, §4, §5

SMILES	affinity strength to TRPC6 protein higher than to TRPC3 protein (TRPC3 protein) [fold]	Kd (TRPC7 protein) [µM]	affinity strength to TRPC6 protein higher than to TRPC7 protein (TRPC7 protein) [fold]	Kd (TRPC3 protein; MST) [µM]
Cn1c(C(=O)NCCC(=O)O)cc2ccccc21 [3-[(1-methyl-1H-indole-2-carbonyl)amino]propionic acid, reference compound]	27	1.04	35	
CC(=O)OCCCNC(=O)c1c(C=O)c2ccccc2n1C [compound 1-1, propyl 3-[(3-formyl-1-methyl-1H-indole-2-carbonyl)amino]acetate]	81	3.04	254	
Cn1c(C(=O)NCCCOC(=O)c2ccccc2)c(C=O)c2ccccc21 [compound 2-1]	51	3.21	160	1.4
